In article PMC6389928, “Biomolecular Interaction, Anti-Cancer and Anti-Angiogenic Properties of Cobalt(III) Schiff Base Complexes” (Scientific Reports, 2019):

Assays:
A549 cells [1] = assay: Cell cycle analysis by flow cytometry; type: cell-based, Human; conditions: A549, IC50 concentrations, 24 h, propidium iodide, compared to control
Description: The possible cell cycle arrest was determined by flow cytometer which is used to distinguish and quantify the cells in different phases of the cell cycle. The cells were treated with the complexes 1 and 2 at the respective half maximal inhibitory concentrations. The cells were fixed, stained with propidium iodide and analysed for DNA/cell content as aspects of cell cycle distribution. The DNA histograms and the percentage of cells in each of the phases are given Fig. 5. […] The increase of cell accumulation in sub G0 - G1 phase indicated delay in progression of cell cycle. The cells thus inhibited in division end up in the apoptosis due to sub G0 − G1 check point arrest. […] In as much as apoptosis itself could be induced due to the DNA damage, necrosis is a clear indication of damage caused by the complexes to the cytosol.
Cell cycle analysis: Cell phase distribution was determined by flow cytometry with DNA staining to reveal the total amount of DNA[94]. […] After incubation, the cells were trypsinized, harvested, fixed in 1 mL 80% cold ethanol and incubated at 4 °C for 15 min. […] Cell cycle distribution was analyzed using FACS (fluorescent activated cell sorter) (Becton-Dickinson, Sanjose, CA, USA) with 15 mW, 488 nm argon ion laser. […] The data were acquired and analyzed using Dean-Jett-Fox algorithm.

A549 cells [2] = conditions: A549, respective IC50 concentrations, 24 h
Description: AO/EB Staining of A549 cells: The mode of cell death induced by the complexes was deciphered using acridine orange (AO) and ethidium bromide (EB) staining protocol. Cells were cultured in 6 well plates, treated with the complexes and allowed for 24 h. Then the cells were incubated with AO and EB solutions (1 part of 100 μg/mL AO and 1 part of 100 μg/mL of EB in PBS) and examined in a fluorescent microscope (Carl Zeiss, Jena, Germany) using a UV filter (450–490 nm). Three hundred cells per sample were counted in triplicate for each dose point. The cells were scored as viable, apoptotic and necrotic as judged by the staining pattern, nuclear morphology and cytoplasmic integrity. The percentage of apoptotic and necrotic cells were calculated and the morphological changes were also photographed.

Row | SMILES | effect on cell cycle distribution (A549 cells [1]) | mode of cell death (AO/EB staining) (A549 cells [2])
1 | CCCCCCCCCCCC[NH2+][Co-3]123([NH2+]CCCCCCCCCCCC)[O]c4ccccc4C=[N+]1CC[N+]2=Cc1ccccc1[O]3.[O-][Cl+3]([O-])([O-])[O-] [Complex 1, trans-[Co(salen)(DA)2](ClO4)] | gradual increase in sub G0 − G1 and G2 − M phases | most of the cells succumbed to apoptosis and a few to necrosis
2 | CCCCCCCCCCCC[NH2+][Co-3]123([NH2+]CCCCCCCCCCCC)[O]c4ccccc4C=[N+]1c1ccccc1[N+]2=Cc1ccccc1[O]3.[O-][Cl+3]([O-])([O-])[O-] [Complex 2, trans-[Co(salophen)(DA)2](ClO4)] | gradual increase in sub G0 − G1 and G2 − M phases | most of the cells succumbed to apoptosis and a few to necrosis
